Our source for the IC50 values is patent publication US9617240B2 (TEIJIN PHARMA LIMITED, priority 2013, dated 2017).

pIC50: −log10 of the molar value.

The target in the test is T1, oxidase type xanthine oxidase (derived from buttermilk) (Bos taurus, UniProt P80457).
T1 construct: oxidase type xanthine oxidase (derived from buttermilk, supplied by Calbiochem Novabiochem Corp.); purchased Calbiochem Novabiochem Corp; host or cells: buttermilk (natural source)
The experiment in a line: Xanthine oxidase inhibitory activity (absorbance change at 290 nm). In kind it is biochemical. As to conditions: xanthine substrate, 100 mM phosphate buffer, absorbance at 290 nm for 5 minutes; read-out: Inhibitory Activity (50% inhibitory concentration with respect to oxidase type xanthine oxidase). On the procedure: The xanthine oxidase inhibitory activity was measured for the compounds synthesized according to the above Examples.
After a test compound was dissolved in DMSO (manufactured by Sigma Co.) so that the concentration is 20 mM, the test compound was prepared and used at a desired concentration at the time of use.
The evaluation of the xanthine oxidase inhibitory activity of the compounds of the present invention was conducted by partially modifying the method described in the literature (Method Enzymatic Analysis, 1, 521-522, 1974). The present evaluation is based on the oxidase type xanthine oxidase inhibitory activity evaluation. That is, a xanthine (manufactured by Sigma Co.) solution prepared at 10 mM in advance using a 20 mM sodium hydroxide solution was adjusted to 30 μM using a 100 mM phosphate buffer solution, and 75 μL/well of each solution was added into a 96-well plate. Aliquots (1.5 μL/well) of each test sample, which was diluted with DMSO so that the concentration is 100 times the final concentration, were added into a 96-well plate, and after mixing, the absorbance at 290 nm was measured by a microplate reader SPECTRA MAX Plus 384 (manufactured by Molecular Devices, LLC). Subsequently, oxidase type xanthine oxidase (derived from buttermilk, supplied by Calbiochem Novabiochem Corp.) was prepared at 30.6 mU/mL using a 100 mM phosphate buffer solution and 73.5 μL/well of each solution was added. Immediately after mixing, the change in absorbance at 290 nm was measured for 5 minutes. The enzyme activity when DMSO was used instead of a test compound solution was defined as 100%, the inhibitory rate of the test compounds was calculated and the 50% inhibitory concentration with respect to oxidase type xanthine oxidase was calculated by fitting to the dose-response curve.
Note that the symbols (+, ++, +++) in the table represent inhibitory activity values as shown below.

T1 sequence (P80457 whole entry): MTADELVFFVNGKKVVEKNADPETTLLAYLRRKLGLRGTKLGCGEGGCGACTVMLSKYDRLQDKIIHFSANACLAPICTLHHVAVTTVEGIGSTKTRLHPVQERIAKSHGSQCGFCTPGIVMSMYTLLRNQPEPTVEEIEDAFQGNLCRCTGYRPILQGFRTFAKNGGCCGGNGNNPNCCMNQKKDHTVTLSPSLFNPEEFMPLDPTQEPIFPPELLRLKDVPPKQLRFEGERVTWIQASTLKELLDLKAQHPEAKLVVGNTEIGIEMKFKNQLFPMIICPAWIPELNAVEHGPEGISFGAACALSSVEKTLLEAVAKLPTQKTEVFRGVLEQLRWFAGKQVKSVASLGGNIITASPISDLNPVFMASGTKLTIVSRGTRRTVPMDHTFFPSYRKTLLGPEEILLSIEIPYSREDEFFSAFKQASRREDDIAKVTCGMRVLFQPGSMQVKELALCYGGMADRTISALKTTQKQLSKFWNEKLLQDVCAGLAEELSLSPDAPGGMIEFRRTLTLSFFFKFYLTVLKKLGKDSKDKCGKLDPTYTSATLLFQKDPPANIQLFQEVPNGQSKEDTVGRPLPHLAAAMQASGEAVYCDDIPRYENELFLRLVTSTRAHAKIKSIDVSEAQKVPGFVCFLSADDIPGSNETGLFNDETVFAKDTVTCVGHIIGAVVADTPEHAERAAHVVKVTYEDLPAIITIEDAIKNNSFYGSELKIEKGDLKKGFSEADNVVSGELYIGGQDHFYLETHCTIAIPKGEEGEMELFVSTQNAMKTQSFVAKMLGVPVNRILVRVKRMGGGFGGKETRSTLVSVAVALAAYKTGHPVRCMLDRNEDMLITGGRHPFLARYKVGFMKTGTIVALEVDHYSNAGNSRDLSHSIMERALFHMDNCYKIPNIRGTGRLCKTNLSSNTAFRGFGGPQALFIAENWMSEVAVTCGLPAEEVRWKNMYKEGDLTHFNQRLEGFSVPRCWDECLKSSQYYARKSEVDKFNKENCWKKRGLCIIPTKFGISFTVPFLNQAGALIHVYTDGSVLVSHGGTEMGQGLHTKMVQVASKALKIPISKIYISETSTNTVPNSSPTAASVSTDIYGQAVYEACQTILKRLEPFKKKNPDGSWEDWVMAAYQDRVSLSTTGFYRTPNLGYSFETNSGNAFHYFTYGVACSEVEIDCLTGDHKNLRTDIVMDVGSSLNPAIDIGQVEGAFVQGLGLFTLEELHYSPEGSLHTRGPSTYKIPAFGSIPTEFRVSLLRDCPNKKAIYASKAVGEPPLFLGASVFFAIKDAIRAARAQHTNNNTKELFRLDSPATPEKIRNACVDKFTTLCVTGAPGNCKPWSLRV

On to `Cc1cc(F)ccc1-c1cnc(-n2cc(C(=O)O)cn2)cc1C#N` [Compound 49, 1-[4-cyano-5-(4-fluoro-2-methylphenyl)pyridin-2-yl]-1H-pyrazole-4-carboxylic acid], for which the pIC50 was not above 8.00. `N#Cc1cc(-n2cc(C(=O)O)cn2)ncc1-c1ccoc1` [Compound 23, 1-[4-cyano-5-(furan-3-yl)pyridin-2-yl]-1H-pyrazole-4-carboxylic acid]: the pIC50 was 8.00 to 8.30.

Turning to `N#Cc1cc(-n2cc(C(=O)O)cn2)ncc1-c1ccc(Oc2ccccc2)cc1` [Compound 54, 1-[4-cyano-5-(4-phenoxyphenyl)pyridin-2-yl]-1H-pyrazole-4-carboxylic acid], the pIC50 was 8.30 to 9.00. As for `N#Cc1nc(-n2cc(C(=O)O)cn2)ccc1-c1ccc(F)cc1` [Compound 89], the pIC50 was not above 8.00. The result for `COc1cc(F)ccc1-c1cnc(-n2cc(C(=O)O)cn2)cc1C#N` [Compound 50, 1-[4-cyano-5-(4-fluoro-2-methoxyphenyl)pyridin-2-yl]-1H-pyrazole-4-carboxylic acid] reads 8.30 to 9.00; that for `CSc1ccc(-c2cnc(-n3cc(C(=O)O)cn3)cc2C#N)cc1` [Compound 63, 1-{4-cyano-5-[4-(methylsulfanyl)phenyl]pyridin-2-yl}-1H-pyrazole-4-carboxylic acid], 8.30 to 9.00; that for “1-[5-(4-acetophenyl)-4-cyanopyridin-2-yl]-1H-pyrazole-4-carboxylic acid [Compound 71]”, 8.30 to 9.00. Regarding `N#Cc1cc(-n2cc(C(=O)O)cn2)ncc1-c1ccsc1` [Compound 21, 1-[4-cyano-5-(thiophen-3-yl)pyridin-2-yl]-1H-pyrazole-4-carboxylic acid], the pIC50 was 8.30 to 9.00.

Take `N#Cc1cc(-n2cc(C(=O)O)cn2)ncc1-c1cccc(OC(F)F)c1` [Compound 46, 1-{4-cyano-5-[3-(difluoromethoxy)phenyl]pyridin-2-yl}-1H-pyrazole-4-carboxylic acid]: the pIC50 was 8.00 to 8.30. Then `COc1cccc(-c2cnc(-n3cc(C(=O)O)cn3)cc2C#N)c1F` [Compound 19, 1-[4-cyano-5-(2-fluoro-3-methoxyphenyl)pyridin-2-yl]-1H-pyrazole-4-carboxylic acid], with 8.30 to 9.00; and `N#Cc1cc(-n2cc(C(=O)O)cn2)ncc1-c1ccc(F)cc1` [Compound 29, 1-[4-cyano-5-(4-fluorophenyl)pyridin-2-yl]-1H-pyrazole-4-carboxylic acid], with 8.30 to 9.00. Take `COc1cccc(-c2cnc(-n3cc(C(=O)O)c(N)n3)cc2C#N)c1` [Compound 102, 3-amino-1-[4-cyano-5-(3-methoxyphenyl)pyridin-2-yl]-1H-pyrazole-4-carboxylic acid]: the pIC50 is 8.30 to 9.00. Regarding `Cc1ccc(-c2cnc(-n3cc(C(=O)O)cn3)cc2C#N)cc1` [Compound 14, 1-[4-cyano-5-(4-methylphenyl)pyridin-2-yl]-1H-pyrazole-4-carboxylic acid], the pIC50 was 8.30 to 9.00. Turning to `CC(C)c1cccc(-c2cnc(-n3cc(C(=O)O)cn3)cc2C#N)c1` [Compound 48, 1-{4-cyano-5-[3-(propane-2-yl)phenyl]pyridine-2-yl}-1H-pyrazole-4-carboxylic acid], the pIC50 is 8.30 to 9.00. The result for `N#Cc1cc(-n2cc(C(=O)O)cn2)cnc1-c1ccccc1F` [Compound 76, 1-[5-cyano-6-(2-fluorophenyl)pyridin-3-yl]-1H-pyrazole-4-carboxylic acid] reads not above 8.00.

As for `COc1ccc(F)c(-c2cnc(-n3cc(C(=O)O)c(N)n3)cc2C#N)c1` [Compound 107, 3-amino-1-[4-cyano-5-(2-fluoro-5-methoxyphenyl)pyridine-2-yl]-1H-pyrazole-4-carboxylic acid], the pIC50 is 8.30 to 9.00. As for `N#Cc1cc(-n2cc(C(=O)O)cn2)ncc1-c1ccccc1Cl` [Compound 6, 1-[4-cyano-5-(2-chlorophenyl)pyridin-2-yl]-1H-pyrazole-4-carboxylic acid], the pIC50 was 8.30 to 9.00. Then `N#Cc1cc(-n2cc(C(=O)O)cn2)ncc1-c1ccc(Cl)cc1` [Compound 15, 1-[4-cyano-5-(4-chlorophenyl)pyridin-2-yl]-1H-pyrazole-4-carboxylic acid], with 8.30 to 9.00; and `N#Cc1nc(-n2cc(C(=O)O)cn2)ccc1-c1ccccc1` [Compound 85, 1-(6-cyano-5-phenylpyridin-2-yl)-1H-pyrazole-4-carboxylic acid], with not above 8.00; and `Cc1cc(-c2ccc(-n3cc(C(=O)O)cn3)nc2C#N)ccc1F` [Compound 94, 1-[6-cyano-5-(4-fluoro-3-methylphenyl)pyridin-2-yl]-1H-pyrazole-4-carboxylic acid], with not above 8.00. As to `Cc1cccc(-c2cnc(-n3cc(C(=O)O)cn3)cc2C#N)c1` [Compound 10, 1-[4-cyano-5-(3-methylphenyl)pyridin-2-yl]-1H-pyrazole-4-carboxylic acid], the pIC50 was 8.30 to 9.00. Then `Cc1ccc(-c2cnc(-n3cc(C(=O)O)cn3)cc2C#N)cc1F` [Compound 39, 1-[4-cyano-5-(3-fluoro-4-methylphenyl)pyridin-2-yl]-1H-pyrazole-4-carboxylic acid], with 8.30 to 9.00; and `N#Cc1cc(-n2cc(C(=O)O)cn2)ncc1-c1ccc(C(F)(F)F)cc1` [Compound 43, 1-{4-cyano-5-[4-(trifluoromethyl)phenyl]pyridin-2-yl}-1H-pyrazole-4-carboxylic acid], with 8.30 to 9.00. For the molecule `N#Cc1nc(-n2cc(C(=O)O)cn2)ccc1-c1ccccc1F` [Compound 86, 1-[6-cyano-5-(2-fluorophenyl)pyridin-2-yl]-1H-pyrazole-4-carboxylic acid], the pIC50 was 8.00 to 8.30. Then `Cc1cc(-c2cnc(-n3cc(C(=O)O)cn3)cc2C#N)ccc1Cl` [Compound 51, 1-[4-cyano-5-(4-chloro-3-methylphenyl)pyridin-2-yl]-1H-pyrazole-4-carboxylic acid], with 8.30 to 9.00; and `CCOc1cccc(F)c1-c1cnc(-n2cc(C(=O)O)cn2)cc1C#N` [Compound 17, 1-[4-cyano-5-(2-ethoxy-6-fluorophenyl)pyridin-2-yl]-1H-pyrazole-4-carboxylic acid], with 8.00 to 8.30.

Turning to `N#Cc1cc(-n2cc(C(=O)O)cn2)ncc1-c1ccc(C(=O)O)cc1` [Compound 42, 1-[5-(4-carboxyphenyl)-4-cyanopyridin-2-yl]-1H-pyrazole-4-carboxylic acid], the pIC50 was 8.30 to 9.00. Take `Cc1nn(-c2cc(C#N)c(-c3ccccc3)cn2)cc1C(=O)O` [Compound 26, 1-(4-cyano-5-phenylpyridin-2-yl)-3-methyl-1H-pyrazole-4-carboxylic acid]: the pIC50 is not above 8.00. The result for `CCOc1ccccc1-c1cnc(-n2cc(C(=O)O)cn2)cc1C#N` [Compound 3, 1-[4-cyano-5-(2-ethoxyphenyl)pyridin-2-yl]-1H-pyrazole-4-carboxylic acid] reads 8.00 to 8.30. On to `N#Cc1cc(-n2cc(C(=O)O)cn2)ncc1-c1ccc(OCc2ccccc2)cc1` [Compound 66, 1-{5-[4-(benzyloxy)phenyl]-4-cyanopyridine-2-yl}-1H-pyrazole-4-carboxylic acid], for which the pIC50 was 8.30 to 9.00. Then `N#Cc1cc(-n2cc(C(=O)O)cn2)ncc1-c1cc(F)ccc1F` [Compound 35, 1-[4-cyano-5-(2,5-difluorophenyl)pyridin-2-yl]-1H-pyrazole-4-carboxylic acid], with 8.30 to 9.00; and `CCOc1cccc(-c2cnc(-n3cc(C(=O)O)cn3)cc2C#N)c1` [Compound 30, 1-[4-cyano-5-(3-ethoxyphenyl)pyridin-2-yl]-1H-pyrazole-4-carboxylic acid], with 8.30 to 9.00. As for `N#Cc1cc(-n2cc(C(=O)O)cn2)ncc1-c1cccc([N+](=O)[O-])c1` [Compound 72, 1-[4-cyano-5-(3-nitrophenyl)pyridin-2-yl]-1H-pyrazole-4-carboxylic acid], the pIC50 is not above 8.00. For `N#Cc1cc(-n2cc(C(=O)O)cn2)ncc1-c1ccc(-c2ccccc2)cc1` [Compound 65, 1-[4-cyano-5-(4-phenylphenyl)pyridine-2-yl]-1H-pyrazole-4-carboxyic acid], the pIC50 is 8.30 to 9.00.

Consider `N#Cc1cc(-n2cc(C(=O)O)cn2)cnc1-c1ccc(F)cc1F` [Compound 77, 1-[5-cyano-6-(2,4-difluorophenyl)pyridin-3-yl]-1H-pyrazole-4-carboxylic acid], for which the pIC50 was not above 8.00.

With `N#Cc1cc(-n2cc(C(=O)O)cn2)ncc1-c1cccc(F)c1` [Compound 11, 1-[4-cyano-5-(3-fluorophenyl)pyridin-2-yl]-1H-pyrazole-4-carboxylic acid], the pIC50 was 8.00 to 8.30.

Turning to `N#Cc1cc(-n2cc(C(=O)O)c(N)n2)ncc1-c1ccc(F)cc1` [Compound 99, 3-amino-1-[4-cyano-5-(4-fluorophenyl)pyridin-2-yl]-1H-pyrazole-4-carboxylic acid], the pIC50 was 8.30 to 9.00.
